Reference: patent US8058228B2, “Leptin peptide antagonists” (Boston Biomedical Research Institute, priority 2004, dated 2011)

Experiments:
[1] = tested on: OB-R; test: p-Stat3 expression in rabbit endometrial cells (immunocytochemistry, Western blot); format: cell-based; details: for effect on basal expression of p-Stat3 / effect on leptin up-regulation of Stat3 phosphorylation: rESC and rEEC; for effect on basal expression of p-Stat3: Western blot, 3 to 300 nM; for effect on leptin up-regulation of Stat3 phosphorylation: peptides 3 to 300 nM, antibody 1-10 μg/ml
Protocol: (§1) Rabbit endometrial cells (5×10^5 cells/well) were cultured for 5-9 days in DMEM-MCDB105 (3:1) medium containing 10% fetal bovine serum (FBS), 5 μg/ml insulin, 1% amphopthericin B, 100 μg/ml streptomycin and 100 U/ml penicillin until confluent layers were obtained. The cells were washed twice with 100 mM phosphate saline buffer (PBS) −2% BSA (w/v), pH 7.2 and cultured for an additional 2 days in the same medium but without FBS (basal medium). This procedure was performed to reduce any effects of cytokines from FBS on the phosphorylation rate of Stat3 as well as the expression of other cytokines and their receptors. Cells were washed as described before and cultured in basal medium containing leptin (0-10 nM), OB-R antibody (1-20 μg/ml) and/or LPA-2 peptides (0-300 nM). Cultures were stopped at 24 h and the cells were used for immunocytochemistry, binding studies and western blot analysis. The conditioned media were collected, lyophilized and stored at −80° C. for ELISA determinations. Duplicate wells were run for each treatment and the experiments repeated at least three times with different cell preparations from different rabbits. Controls were the same cellular preparations cultured in basal medium containing non-specific goat IgGs and LPA-2Sc.
(§2) The rabbit endometrial cells were cultured as described above in duplicate on 8-well glass-bottom culture plates (Nalgene Nunc International, Naperville, Ill.) and fixed with methanol at −20° C. for 20 min for immunocytochemical studies. All the antibodies tested were diluted in PBS-2% BSA (w/v; buffer A).
(§3) Anti IL-1R tl (1 μg/ml), anti LIF-R (2 μg/ml), anti vimentin (1:50), anti cytokeratin (1:50) and anti p-Stat3 (1 μg/ml) antibodies were used to assess the expression of the respective antigens by rEEC and rESC cultures. After incubation with primary antibodies the cells were incubated with a streptavidin-biotin-alkaline phosphatase system according to the manufacturer directions (Vectastain, ABC-AP kit, Vector Laboratories, Burlingame, Calif.) and counter-stained with hematoxylin (Dako). Negative controls included cell preparations in which the primary antibodies were substituted by irrelevant species matched IgGs.
(§4) After culture in the presence of leptin, LPAs or antibodies, the endometrial cells were washed with ice-cold PBS and lysed by homogenization on ice with lysis buffer [[…] Tris, pH 7.4, containing 137 nM NaCl, 2 mM EDTA, 10% glycerol, 50 mM β-glycerophosphate, 50 nM NaF, 1% Nonidet P-40, 2 mM phenyl-methylsulfonyl fluoride, 2 mM sodium orthovanadate, 100 μM antipain, 0.1 mg/ml trypsin inhibitor and protease cocktail inhibitor 1:50 (Sigma)]. Cellular lysates were centrifuged at 24000 g at 4° C. for 10 min. Protein concentrations were determined using the Bradford protein assay (BioRad Laboratories Inc., Hercules, Calif.).
Protein extracts from cell lysates were combined (1:1) with Laemmli buffer (2× concentrated) and 10 μg of proteins were loaded per lane on 7.5% (for p-Stat3, IL-1R tl and LIF-R) and 10% (for OB-R) SDS-PAGE gels. Electrophoresis was performed at 65 V for 1-1.5 h (BioRad, electrophoresis apparatus). Electroblotting onto 0.2 μm nitrocellulose membranes was performed at 22V overnight at 4° C. in 48 nM Tris-39 nM glycine buffer containing 0.037% SDS and 20% methanol. […]

[2] = tested on: OB-R; test: LIF-R expression by rabbit endometrial cells (immunocytochemistry, Western blot); format: cell-based; details: leptin 3 nM; for effect on leptin up-regulation of LIF-R expression: rESC (immunocytochemistry) and rEEC (Western blot), LPA-2 30 and 120 nM; for LIF-R expression after leptin: rESC and rEEC
Protocol: as §1, §2, §3
as §4, with “Cellular lysates were centrifuged at 24000 g at 4° C. for 10 min.” left out, “Calif.). […]” for “Calif.).”

Substance	effect on basal expression of p-Stat3 [1]	effect on leptin up-regulation of Stat3 phosphorylation ([1]; leptin 3 nM)	effect on leptin up-regulation of LIF-R expression [2]	p-Stat3 expression after leptin ([1]; rESC, immunocytochemistry, leptin 3 nM)	LIF-R expression after leptin [2]	LIF-R expression after leptin ([2]; listed as Leptin)
VAEVLNRSDLIQRISFSLDLNNSKLH [LPA-2Sc, scrambled version of LPA-2, negative control, reference compound]	No inhibitory effect on p-Stat3 expression	not observed	did not prevent the leptin up-regulation of LIF-R			
leptin: human recombinant leptin (R&D Systems), OB-R ligand used as stimulus				up-regulated	up-regulates the expression of LIF-R	significantly increases the expression of LIF-R
SRNVIQISNDLENLRDLLHVLAFSKS [LPA-2, 26 amino acid peptide, residues 70-95 of helix III of the human leptin molecule; leptin peptide antagonist]	effectively inhibited the basal expression of p-Stat3	significantly inhibits the leptin up-regulation of Stat3 phosphorylation	totally inhibited the leptin effect on LIF-R expression			
